Reference: patent US20230255934A1, “NURR1 RECEPTOR MODULATORS AND USES THEREOF” (The Regents of the University of California, priority 2020, published 2023)
“Also recorded” adds a separate entry of the source. Read-outs that look alike come from different tables or passages of the source.

What was measured:
[1] = system: Nurr1 target genes Th and Vmat2 in MN9D cells; assay: Target gene transcription assay (qPCR) in MN9D cells; format: cell-based, mouse; details: for Expression of Th, fold-change relative to vehicle (DMSO) / Expression of Vmat2, fold-change relative to vehicle (DMSO): 10 μM, 24 h, normalized to Hprt
Method: Target Gene Transcription Assays. These assays were carried out using standard protocols. MN9D TET-ON frozen cell stocks (P5) were thawed and grown for 60-72 h on poly-D-lysine pre-treated culture dishes (100 mm) in Dulbecco's Modified Eagle Medium/Nutrient Mixture F-12 (DMEM/F-12; Gibco) supplemented with 5% Tet System Approved FBS (Takara Bio USA) at 37° C., 5% C02 to ˜80% confluency. The resulting cells were then trypsinized with 0.25% Trypsin-EDTA (Gibko) and diluted to 2·10^5 cells/ml with fresh medium. The resulting cell suspension (0.8 mL) was added to 2× concentrated compound in the same medium containing 0.2% DMSO (0.8 mL) in an Eppendorf tube. The cell suspension with compound or vehicle (DMSO) was then seeded onto a 24-well plate pre-treated with Poly-D-Lysine at 0.8 mL per well. Assays were performed under conditions of basal Nurr1 expression, without induction of additional Nurr1 expression using doxycycline.
After 24 h, total RNA was extracted the cells in each well using the Quick-RNA MiniPrep Plus Kit (Zymo Research), according to the manufacturer's instructions. The cDNA was then synthesized from 1000 ng of purified RNA using High-Capacity cDNA Reverse Transcription Kit (Applied Biosystems) and used as template. The qPCR as performed using iTaq Universal SYBR Green Supermix (BioRad) and CFX96 Real-Time Detection System machine (BioRad). Briefly, qPCR was performed in hard-shell 96-well PCR plates (BioRad) using cDNA corresponding to 8.75 ng of starting total RNA in a volume of 15 μl, containing 7.5 μl of SYBR Green Supermix, and 1 μL of 10 μM forward and reverse primers. Cycling parameters for qPCR included an initial denaturation at 95° C. for 3 min, followed by 40 cycles of 95° C. for 5 s and annealing at 56° C. for 30 s. The forward and reverse primers (Table 4) were ordered from IDT. Gene expression was quantified by the comparative2-ΔΔCt method, with the mouse housekeeping gene hypoxanthine-guanine phosphoribosyltransferase (Hprt) used as internal reference to determine the relative mRNA expression. Transcript levels for target genes were normalized to the housekeeping gene Hprt and fold change was compared to gene expression levels from vehicle (DMSO) only treated cells. GraphPad Prism 8 software was used for statistical analysis. Two-way ANOVA was applied for DMSO fold change vs compound. Results are from three independent experiments. Relative average expression±SD; *p<0.05, **p<0.01, ***p<0.001, ****p<0.0001 by ANOVA in comparison expression with 0 μM compound (DMSO only).

Nurr1 LBD (wildtype) = target: T1, Nurr1 LBD (wildtype) (Homo sapiens, UniProt P43354); assay: Microscale thermophoresis (MST) binding to wildtype Nurr1 LBD; details: for Binding to the Nurr1 LBD (in words): MST; for Kd: read-out: KD; for Amplitude: Table 1, MST amplitude, WT; for Response Amplitude: Table 2, MST, Wildtype
T1 construct: made in house
Method: (§1) Concentration-dependent association of the indoles with the Nurr1 LBD was carried out using microscale thermophoresis. Stock solutions (10 mM in DMSO) of each indole were serially diluted (200 μM indole, 0.5× dilutions down to 0.0061 μM) in MST buffer (25 mM HEPES, pH 7.4, 150 mM NaCl, and 0.1% Pluronic F127) containing 2% DMSO. The dilutions were carried out with 4% DMSO in the MST buffer for a total of 16 concentrations. Equivalent volumes and concentrations of the fluorescently labeled Nurr1 LBD in MST buffer were added to each ligand dilution in the series to reach a final concentration of 75 nM labeled protein. After incubating for 20 minutes, the samples were loaded into Monolith NT.115 Capillaries (Nanotemper).
(§2) Data were collected using the Monolith NT.115 System (Nanotemper), with settings for all samples at 40% excitation power and 40% MST power. The initial fluorescence was recorded for 3 sec and the thermophoresis fluorescence response was recorded for 20 sec. The data was inspected with Palmist software^5, and data points affected by initial fluorescence quenching or photobleaching were eliminated. The fluorescent response for each sample was normalized to the initial fluorescence using Palmist software to provide the values of thermophoresis (Fn). The resulting data was used to generate a plot of the change in thermophoresis (Fn-Fn0, where Fn=thermophoresis and Fn0=thermophoresis response in unbound range) versus concentration of the ligand. GraphPad Prism v. 8.3.0 software was used to fit the resulting data to a mass action equation for a specific binding with Hill slope, solving for KD: Fn-Fn0═Fmax·[L]^n/(KD^n+[L]^n), where Fmax=maximum amplitude of thermophoresis, [L]=concentration of the ligand at a specific point, KD=dissociation constant, nH=Hill Coefficient.
To investigate the potential impact of compound nano-aggregation on binding affinity, we used dynamic light scattering to inspect the aggregation of 5-chlorindole in solution and repeated the MST binding experiments in the presence of increasing concentrations of the surfactant Pluoronic F127 (FIGS. 12A-12D). […] As well, increasing concentrations of the surfactant Pluronic F127 had small effects (<2-fold) on the affinity of 5-chloroindole for the Nurr1 LBD (FIGS. 12A-12D).

[2] = target: T2, Nurr1 LBD Arg563Ala + His516Ala (Homo sapiens, UniProt P43354, H516A/R563A); assay: MST binding to Arg563Ala + His516Ala double mutant Nurr1 LBD; details: for Amplitude: Table 1, MST amplitude, H516A/R563A; for Response Amplitude: Table 2, MST, Arg563Ala + His516Ala
T2 construct: Mutants of LAP2 Nurr1 were prepared by GenScript starting from LAP2 Nurr1 vector; made in house
T2 sequence (P43354 with tags, fused parts or gaps H516A/R563A): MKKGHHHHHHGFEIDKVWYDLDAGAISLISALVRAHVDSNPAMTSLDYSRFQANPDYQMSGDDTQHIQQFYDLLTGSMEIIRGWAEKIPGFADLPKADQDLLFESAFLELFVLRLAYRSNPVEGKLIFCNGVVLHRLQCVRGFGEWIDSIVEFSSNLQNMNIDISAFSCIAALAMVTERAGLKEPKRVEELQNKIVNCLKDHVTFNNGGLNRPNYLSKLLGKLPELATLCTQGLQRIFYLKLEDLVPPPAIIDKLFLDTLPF
Method: The plasmid used for the expression of LAP2-tagged Nurr1 LBDs (LAP2 Nurr1) was prepared by GenScript (Piscataway, N.J.) as the product of gene synthesis and subcloning into pET-21a(+) Vector (GenScript) using the Ndel and Xhol sites within the MCS. Mutants of LAP2 Nurr1 were prepared by GenScript starting from LAP2 Nurr1 vector.
as §1, §2

[3] = Table 1, H516A/R563A relative to WT

T1 sequence (P43354 with tags, fused parts or gaps): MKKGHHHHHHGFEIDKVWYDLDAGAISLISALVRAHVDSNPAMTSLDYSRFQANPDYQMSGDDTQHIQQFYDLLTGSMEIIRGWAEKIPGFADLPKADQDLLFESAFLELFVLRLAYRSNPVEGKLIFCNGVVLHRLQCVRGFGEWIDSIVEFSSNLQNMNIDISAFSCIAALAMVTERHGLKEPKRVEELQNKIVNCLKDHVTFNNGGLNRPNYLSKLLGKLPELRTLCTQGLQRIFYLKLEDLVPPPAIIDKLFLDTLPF

Row | Compound | Effect on expression of Nurr1 target genes Th and Vmat2 (in words) [1] | Expression of Th, fold-change relative to vehicle (DMSO) [1] [fold] | Expression of Vmat2, fold-change relative to vehicle (DMSO) [1] [fold] | Binding to the Nurr1 LBD (in words) (Nurr1 LBD (wildtype)) | Kd (Nurr1 LBD (wildtype); Nurr1 LBD) [µM] | Amplitude (Nurr1 LBD (wildtype)) | Kd (Nurr1 LBD (wildtype); Table 1, Nurr1 variant WT) [µM] | Response Amplitude (Nurr1 LBD (wildtype)) | Amplitude (% change) [2, 3] [%] | Amplitude [2] | Response Amplitude [2] | further results
1 | Brc1ccc2[nH]ccc2c1 [5-bromoindole] | upregulating the expression; also recorded: supports the transcription | 2.2 | 2.5 | saturable binding | 5 | 72 + 8 | 10 | 50 + 4 | ≥−86 | - (≤10) | ≤10 (****) | Amplitude (% change) (Nurr1 LBD (wildtype); Table 1, WT (reference)): 0; Binding to Arg563Ala + His516Ala mutant Nurr1 LBD (in words) ([2]; MST): completely eliminated
2 | Clc1ccc2[nH]ccc2c1 [5-chloroindole] | concentration dependent; also recorded: upregulating the expression; also recorded: supports the transcription; also recorded: superior to that of DHI | 1.8 | 2.4 | saturable binding; also recorded: comparable to DHI | 15 | 68 + 4 | 25 | 54 + 2 | −62 | 26 + 2 | 23 + 1 (****) | Hill coefficient nH (Nurr1 LBD (wildtype); 0.1% Pluronic F127): 2; Hill coefficient nH (Nurr1 LBD (wildtype); 0.2% Pluronic F127): 2; Kd (Nurr1 LBD (wildtype); 0.2% Pluronic F127): 8.3 ± 0.7 µM; Hill coefficient nH (Nurr1 LBD (wildtype); 0.5% Pluronic F127): 1; Kd (Nurr1 LBD (wildtype); 0.5% Pluronic F127): 10.9 ± 0.3 µM; Hill coefficient nH (Nurr1 LBD (wildtype); 1.0% Pluronic F127): 1; Kd (Nurr1 LBD (wildtype); 1.0% Pluronic F127): 9.1 ± 0.4 µM; KD (% change) [2, 3]: −68%; Kd ([2]; Table 1, Nurr1 variant H516A/R563A, read-out: KD): 8 µM; Kd ([2]; Table 2, Arg563Ala + His516Ala, read-out: Affinity (KD)): 7.3 µM
